Data set [1] in a line: cells. The format is functional, cell-based.
Data set [2] is described as follows: cells. The format is functional, cell-based. This is another data set of the same source.
The target of data set [3] is Cytochrome P450 2C19 (Homo sapiens, UniProt P33261). Description: Cytochrome panel assay with activity outcomes. Panel member name: p450-cyp2c19 Compounds with AC50 equal or less than 10 uM are considered active. The format is functional.
Data set [4] addresses Cytochrome P450 3A4 (Homo sapiens, UniProt P08684).
Data set [5] is described as follows: HEp-2 cell cytotoxicity, dose response, cytotoxicity control for RSV inhibitor project, HTS (AID 2410). The format is functional. To be noted: human respiratory syncytial virus.
Data set [6] deals with T1, Leucine aminopeptidase (Plasmodium falciparum 3D7, UniProt Q8IL11).
T1 sequence (Q8IL11 whole entry): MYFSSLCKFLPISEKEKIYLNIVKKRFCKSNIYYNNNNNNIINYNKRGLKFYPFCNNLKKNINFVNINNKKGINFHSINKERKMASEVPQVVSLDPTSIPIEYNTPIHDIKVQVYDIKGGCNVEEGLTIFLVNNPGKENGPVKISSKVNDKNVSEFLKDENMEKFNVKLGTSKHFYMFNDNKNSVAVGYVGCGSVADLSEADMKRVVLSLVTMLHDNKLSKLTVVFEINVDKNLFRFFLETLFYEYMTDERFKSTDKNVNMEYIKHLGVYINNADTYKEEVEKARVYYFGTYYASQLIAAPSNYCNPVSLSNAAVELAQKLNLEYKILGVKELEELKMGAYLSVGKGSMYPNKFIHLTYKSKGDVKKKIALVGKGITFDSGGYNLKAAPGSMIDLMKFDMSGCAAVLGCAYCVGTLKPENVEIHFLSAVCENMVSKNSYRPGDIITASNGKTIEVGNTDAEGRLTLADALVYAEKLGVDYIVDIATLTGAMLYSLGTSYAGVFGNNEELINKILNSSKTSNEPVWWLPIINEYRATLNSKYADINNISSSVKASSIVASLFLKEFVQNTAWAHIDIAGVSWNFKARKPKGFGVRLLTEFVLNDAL
In words: P. falciparum M17LAP inhibitors, primary screen, biochemical, fluorogenic H-Leu-NHMec substrate, 1536-well (AID 1619). The class given is functional.

A short description of data set [7]: Shn3 3'UTR reporter inhibitors, dose response, cell-based, Clone20 osteoblasts, firefly luciferase, cherry-picked (AID 624132).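 Note: firefly luciferase luminescence from reporter carrying the Shn3 3'UTR in osteoblasts.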 The format is functional.
Data set [8] can be described thus: control 3'UTR Renilla luciferase suppression, dose response, counter-screen for Shn3 inhibitor project, cell-based, Clone20-Shn3RL, cherry-picked (AID 624133). The format is functional.
Data set [9] addresses Cytochrome P450 2C9 (Homo sapiens, UniProt P11712).
The target of data set [10] is T2, Cytochrome P450 1A2 (Homo sapiens, UniProt P05177).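 Note: PubChem cytochrome P450 panel assay, CYP1A2 panel member.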
T2 sequence (P05177 whole entry): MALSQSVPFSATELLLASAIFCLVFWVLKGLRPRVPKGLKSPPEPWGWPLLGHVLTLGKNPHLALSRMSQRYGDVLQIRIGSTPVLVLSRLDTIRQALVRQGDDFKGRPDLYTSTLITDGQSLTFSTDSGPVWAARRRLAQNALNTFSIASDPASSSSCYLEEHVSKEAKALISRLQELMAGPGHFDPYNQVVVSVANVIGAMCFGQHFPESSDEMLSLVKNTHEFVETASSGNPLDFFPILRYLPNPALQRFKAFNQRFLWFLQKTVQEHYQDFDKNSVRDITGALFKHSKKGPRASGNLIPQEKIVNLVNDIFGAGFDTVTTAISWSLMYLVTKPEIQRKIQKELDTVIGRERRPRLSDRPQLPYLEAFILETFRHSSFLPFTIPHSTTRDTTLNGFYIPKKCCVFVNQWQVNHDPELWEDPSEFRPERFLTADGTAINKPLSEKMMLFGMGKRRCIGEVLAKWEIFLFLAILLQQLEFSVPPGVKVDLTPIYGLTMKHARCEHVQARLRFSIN

For data set [11], the system named is INS1. Description: beta cell apoptosis inhibitors, cytokine rescue, dose response, luminescence, retest (AID 449756).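 Note: cell death triggered by IL-1 beta plus TNF-alpha plus IFN-gamma mixture; protective hits raise ATP signal compared with cytokine alone wells.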 The class given is functional, cell-based. To be noted: Rattus norvegicus.
A short description of data set [12]: Luminescence Cell-Based Dose Retest to Confirm Inhibitors of Cancer Stem Cells. [Related pubchem assays (depositor defined):AID2717, AID2721]. The class given is functional. To be noted: Homo sapiens.

The structures appear in SMILES notation. The source made the active and inactive calls.

Chain of Cytochrome P450 2C19 (P33261 whole entry): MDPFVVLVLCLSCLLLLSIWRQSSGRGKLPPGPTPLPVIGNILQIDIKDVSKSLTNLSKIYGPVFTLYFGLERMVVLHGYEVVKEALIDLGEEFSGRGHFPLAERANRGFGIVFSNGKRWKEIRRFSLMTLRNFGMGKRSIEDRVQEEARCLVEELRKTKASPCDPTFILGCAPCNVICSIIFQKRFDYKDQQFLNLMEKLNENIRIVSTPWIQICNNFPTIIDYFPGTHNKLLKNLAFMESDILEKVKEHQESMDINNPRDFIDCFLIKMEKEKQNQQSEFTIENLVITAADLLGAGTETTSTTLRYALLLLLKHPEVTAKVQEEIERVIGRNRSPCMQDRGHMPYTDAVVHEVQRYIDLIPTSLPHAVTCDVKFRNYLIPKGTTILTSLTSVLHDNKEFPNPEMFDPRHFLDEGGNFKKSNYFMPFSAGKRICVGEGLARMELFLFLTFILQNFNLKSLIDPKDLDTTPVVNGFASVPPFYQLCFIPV
Chain of Cytochrome P450 3A4 (P08684 whole entry): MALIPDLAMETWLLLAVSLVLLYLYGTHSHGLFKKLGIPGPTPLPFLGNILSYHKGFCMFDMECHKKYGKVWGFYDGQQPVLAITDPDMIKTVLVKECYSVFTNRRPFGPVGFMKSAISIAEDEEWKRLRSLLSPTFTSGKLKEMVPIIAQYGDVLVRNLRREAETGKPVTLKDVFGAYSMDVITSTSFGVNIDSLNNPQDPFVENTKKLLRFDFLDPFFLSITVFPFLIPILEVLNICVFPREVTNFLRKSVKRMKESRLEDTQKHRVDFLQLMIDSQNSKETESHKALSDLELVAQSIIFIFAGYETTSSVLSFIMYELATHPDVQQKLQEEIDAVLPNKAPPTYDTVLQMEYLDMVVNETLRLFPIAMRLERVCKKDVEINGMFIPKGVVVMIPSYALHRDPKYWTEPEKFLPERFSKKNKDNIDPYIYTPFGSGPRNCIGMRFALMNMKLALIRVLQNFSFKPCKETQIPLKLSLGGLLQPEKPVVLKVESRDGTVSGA
Chain of Cytochrome P450 2C9 (P11712 whole entry): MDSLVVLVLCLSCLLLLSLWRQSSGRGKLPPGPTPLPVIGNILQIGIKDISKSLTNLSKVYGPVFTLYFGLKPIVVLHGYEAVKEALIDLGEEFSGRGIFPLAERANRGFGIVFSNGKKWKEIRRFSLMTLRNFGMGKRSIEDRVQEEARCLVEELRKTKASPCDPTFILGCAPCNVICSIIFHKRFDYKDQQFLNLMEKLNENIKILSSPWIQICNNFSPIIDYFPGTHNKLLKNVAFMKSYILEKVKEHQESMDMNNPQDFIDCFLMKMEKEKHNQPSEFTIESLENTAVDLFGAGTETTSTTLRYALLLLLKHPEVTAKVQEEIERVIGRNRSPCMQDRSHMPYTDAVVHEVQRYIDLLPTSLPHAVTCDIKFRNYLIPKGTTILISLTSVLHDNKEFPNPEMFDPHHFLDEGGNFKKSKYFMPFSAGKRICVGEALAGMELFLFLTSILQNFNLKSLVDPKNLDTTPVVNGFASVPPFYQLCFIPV

On to `CCCNC(=O)c1cc2nc(-c3ccccc3)cc(C(F)(F)F)n2n1`, for which the EC50 in data set [1] and in [2] was > 350 µM (not active) throughout. Turning to `CCN1C[C@]2(C)CC[C@H](OC)[C@@]34[C@@H]2[C@H](OC(C)=O)C2(OCO[C@@]25C[C@@H](OC)[C@H]2C[C@@]3(O)[C@H]5[C@@H]2OC)[C@H]14`, the results for the AC50 result in data set [3] and in data set [4] were “inconclusive” and 15.8 µM (inconclusive), respectively.

Turning to `CCOc1ccc2c(C)c(Cl)c(=O)oc2c1`, the EC50 in data set [1] and in data set [2] was > 350 µM (not active) throughout. With `CCC(Sc1nc(C)cc(O)n1)C(=O)Nc1sc2c(c1C#N)CCCC2` (stereo not drawn), the EC50 in data set [1] and in [2] was > 350 µM (not active) in each case. Turning to `S=C(c1ccc(-c2cc(Cl)ccc2Cl)o1)N1CCCCC1`, the CC50 in data set [5] is > 50 µM (active). Take `COc1ccc(-c2csc(NC(=O)c3cc(C)oc3C)n2)cc1OC`: in [5], the CC50 was 26.6 µM (active). Take `CC1=NNC(=O)C1CC(=O)N/N=C(\C)c1ccco1` (stereo not drawn): the IC50 in data set [6] is 12.3 µM (active). Regarding `Cc1ccc(NC(=O)c2nnn(-c3ccc4c(c3)OCCO4)c2N)cc1`, the CC50 in data set [5] was > 50 µM (active). Take `CCCCC[C@H](CC(=O)NO)C(=O)N[C@@H](C(=O)N1CCC[C@H]1CO)C(C)C`: the figures for the AC50 result in [3] and in [4] were “inconclusive” and 5.01 µM (inconclusive), respectively. In the case of `COC(=O)C1=C(c2ccc3ccccc3c2)C[C@@H]2CC[C@H]1N2C(=O)NCC1CC1`, the AC50 is 6.86 µM (active) in data set [7] and 30.6 µM (active) in data set [8]. For `CCOC(=O)c1sc(NC(=O)CSc2nnc[nH]2)c(C#N)c1C`, the IC50 in data set [6] is 73 µM (active).

Turning to `CN(CC(=O)Nc1ccc(Cl)c(C(F)(F)F)c1)C(=O)CCCNC(=O)c1ccc(Cl)cc1`, the CC50 in data set [5] was 2.49 µM (active). Turning to `CC(C)CN(CCNC(=O)c1cn(C)c2ccc(S(=O)(=O)N3CCCC3)cc2c1=O)CC(C)C`, the EC50 in data set [1] and in data set [2] was > 350 µM (not active) throughout. `COc1ccc(CCn2ccc(O)c(Cc3ccc(Cl)cc3)c2=O)cc1OC`: the CC50 in [5] was 20 µM (active). Regarding `CC(OC(=O)Cn1c(C(F)(F)F)nc2ccccc21)C(N)=O` (stereo not drawn), the AC50 in data set [9] was 0.631 µM (inconclusive); in data set [3] (read-out: AC50), 28.2 µM (inconclusive); in [10], 25.1 µM (inconclusive). With `O=C(O)c1ccccc1Nc1ccc([N+](=O)[O-])cc1C(=O)O`, the EC50 in [1] and in [2] was > 350 µM (not active) each time. Turning to `Cn1ccnc1Sc1nc2ccccc2nc1NS(=O)(=O)c1ccccc1`, the IC50 in [6] was 29.2 µM (active). For `COc1ccc(C2CC(=O)c3sc(N)nc3C2)cc1` (stereo not drawn), in [6], the IC50 was 30.1 µM (active). With `Cc1ccccc1-c1cc(C(=O)n2cccn2)c2cc(Cl)ccc2n1`, the AC50 was 7.08 µM (inconclusive) in data set [3] (read-out: AC50) and 17.8 µM (inconclusive) in data set [10].

With `O=C(O)c1cc(N/N=C/c2ccc(OCc3ccccc3)cc2)ccc1Cl`, the 50% inhibitory concentration (IC50) in [6] was 20 µM (active). As for `Cc1cc(O)nc(N/N=C/c2ccccn2)n1`, the AC50 was 1.37 µM (active) in data set [11] and 2.89 µM (active) in data set [12]. Also, the EC50 is 40.4 µM (active) in [1] and 33.1 µM (active) in [2]. With `Cc1cc(NS(=O)(=O)c2ccc(NC(=O)Nc3ccc4c(c3)OCO4)cc2)no1`, the IC50 in data set [6] was 13.3 µM (active).

In the case of `S=C(Nc1ccc2c[nH]nc2c1)Nc1ccccc1Cl`, the EC50 in data set [1] and in data set [2] was > 350 µM (not active) in each case.

The values are drawn from ChEMBL document CHEMBL1201862, “PubChem BioAssay data set” (2004).
